In US5336762A, “Polychelating agents for image and spectral enhancement (and spectral shift)” (priority 1991, dated 1994):

Columns and labels:
[1] = In vitro T1 relaxation of water protons (IBM PC20 Minispectrometer, 20 MHz); type: physicochemical
Source text: Fe^+3 as the dextran-iron oxide (in which the iron is complexed loosely to the hydroxyl groups of dextran), was obtained as "Proferdex" (20% iron, w/w) (Fisons Pharmaceuticals) and tested, both before and after extensive dialysis (to remove loosely bound iron), for NMR T1-enhancing activity in vitro (using an IBM PC20 Minispectrometer, 20 MHz).

[2] = cited from earlier work
BRO human melanoma = test: MR imaging of human BRO melanoma in nude mice; type: in vivo, Swiss-strain nude mice bearing human melanoma
Method: These studies are performed using the rapidly proliferating, amelanotic, BRO human melanoma grown to a weight of 2.0-6.0 gms in the axillary soft tissues of Swiss-strain nude mice. The amelanotic nature of the tumor avoids any potential for alteration of unenhanced tissue-relaxation times by naturally occurring paramagnetic substances which have been described for pigmented melanomas. The axillary location of tumors allows imaging of the tumor and liver in adjacent slices. This shortens the imaging time for each group of mice and provides maximal anatomic separation of tumors from the higher-intensity kidneys and bladder. MR imaging is performed on a Diasonics 0.35T instrument, using a 30-cm rf coil, and a T1-weighted spin-echo pulse sequence (TR 500, TE 40). Pentobarbital is used for animal anesthesia in order to avoid drug modulation of image intensities. T1 relaxation were performed on the freshly excised organs. In general, these T1's decreased in proportion to increased image intensities. […] The new soluble polymeric agent had the following advantages: […]

human brain tumors = conditions: preliminary studies; cited from earlier work
liver, kidney = test: Proton T1 relaxation times in mouse organs (Example 18a); type: in vivo, CBA mice; conditions: 30 min; Gd dose 0.23 mmol/kg (DEAE forms), 0.47 (dimeglumine)
Method: Test materials were injected i.v. into 25 gm CBA mice. At 30 min the mice were sacrificed by decapitation (exsanguination) and the excised livers and kidneys assessed for changes in proton T1 relaxation times (20 MHz; IR pulse sequence). Doses of test materials were made equivalent based on in vitro potency (ID50 analysis).

[3] = test system: 7777-strain Morris hepatoma; test: MR imaging of Morris hepatoma (7777) in Buffalo rats; type: in vivo, Buffalo-strain rats; conditions: after injection
Method: After two to three weeks the local tumors had reached an average diameter of 0.5 and 1.0 cm. The rats were then imaged both before and after i.v. injections of Gd-DTPA or microsphere Gd-DTPA. MR imaging was performed in a 30cm rf coil with a 0.35 Tesla, Diasonics clinical MRI system (as described above). Post-contrast images were obtained serially beginning immediately after injection and continuing for several hours thereafter.

[4] = test system: liver, kidney, bone marrow; test: In vivo MR imaging T1 in rats (Example 18b); set-up: species or system Sprague-Dawley rats; conditions: Gd 0.30 (soluble), 0.15 (microspheres), 0.30 (dimeglumine) mmol/kg; ~30 min
Method: (§1) Test materials were injected intravenously into 500 gm Sprague-Dawley rats. At approximately 30 minutes, the rats were placed in the head coil of a 0.35 Tesla clinical imaging device (Diasonics Corp.), and T1-weighted images (using both a spin-echo pulse sequence at TR's of 0.5, 1.5 and 2.0, and an inversion recovery sequence) were obtained on image slices of 0.5 cm thickness taken through the liver and kidneys. T1 relaxation times were determined from the TR=0.5 and 2.0 data using area-averaging of signal intensities and a proprietary software program for calculations. At the completion of imaging, the rats were sacrificed by decapitation (exsanguination). Their livers, kidneys and spleens were excised, tested for in vitro correlations with the in vivo changes in proton T1 relaxation times and then placed in buffered formalin fixative for histopathologic evaluation.

spleen = test: T1 of freshly excised rat spleens; type: in vivo, Sprague-Dawley rats; conditions: 30 min post vs. pre
Source text: (§2) Sprague-Dawley rats were imaged using a 0.35-Tesla, Diasonics clinical MR imaging system and a 30-cm rf coil. Three clinically relevant pulse sequences were used: 1) spin-echo with a TR of 0.5 seconds (for T1-weighted images), 2) inversion-recovery (IR) (for T1-weighted images), and 3) spin-echo with a TR of 2.0 seconds (for T2-weighted images). Diasonics software was used to calculate the area-averaged tissue intensities before and after injection of contrast agents. Dual pulse sequences (spin-echo, with TR's of 0.5 and 1.5 seconds or 1.0 and 2.0 seconds) were also used to calculate the in vivo T1 relaxation times. At the conclusion of imaging, the liver, spleen and kidneys were excised and their T1 (IR) and T2 (Carr-Purcell-Meiboom-Gill) relaxation times were determined at 37° C., using an IBM PC20 Minispectrometer. For these in vitro experiments, uninjected rats were used in place of preinjection controls.

liver, spleen, kidney = test: In vitro T1 of excised rat organs (Example 18b); type: in vivo, Sprague-Dawley rats; conditions: same doses
Method: as §1

blood in heart chambers = test: T1-weighted blood flow images of cardiac chambers; type: in vivo, Sprague-Dawley rats; conditions: comparable Gd dose
Method: Gd:DTPA-dextran microspheres (at 0.3 mmoles Gd/kg) were injected i.v. at time zero into Sprague-Dawley rats and images were obtained immediately and serially each 5 minutes×4 (spin-echo, multi-echo, TR=0.5 and 1.5).

liver = test: Liver T1 decrease in mice; type: in vivo; conditions: usual 30-minute imaging interval; 0.10 to 0.30 mmoles/kg
[5] = cited from earlier work; remark: listed apart in the source
[6] = test system: liver, kidney, bone marrow; test: In vivo MR imaging of normal tissues, Sprague-Dawley rats (0.35 Tesla)
Source text: as §2
Post-contrast images were obtained serially beginning immediately after the i.v. injection of contrast agents and continuing for several hours thereafter.

[7] = 30 min post vs. pre, Gd 0.3 mmoles/kg dimeglumine, 0.009 mmoles/kg microspheres

[Cl][Gd]([Cl])[Cl] [GdCl3]
R1 (in vitro T1 relaxivity) ([1]; physiologic saline): 3.03 mM⁻¹ s⁻¹

O=[N+]([O-])[O-].O=[N+]([O-])[O-].O=[N+]([O-])[O-].[Fe+3] [Ferric nitrate]
R1 relaxivity ([1]; Table 1, iron compounds): 1.476 mmol⁻¹ s⁻¹

O=C(O)CN1CCN(CC(=O)O)CCN(CC(=O)O)CCN(CC(=O)O)CC1 [DOTA, 1,4,7,10-tetraazacyclododecane-N,N',N"-tetraacetic acid]
relaxivity, times that of Gd-DTPA ([2]; wide range of Larmor frequencies): approximately 2 times

CNC[C@H](O)[C@@H](O)[C@H](O)[C@H](O)CO.CNC[C@H](O)[C@@H](O)[C@H](O)[C@H](O)CO.O=C([O-])CN(CCN(CC(=O)[O-])CC(=O)O)CCN(CC(=O)[O-])CC(=O)O.[Gd+3] [Gd:DTPA dimeglumine]
relaxivity at higher radio frequencies ([2]; typically 15 MHz): marked decrease in relaxivity
enhancement of BRO melanoma (BRO human melanoma; 0.03 mmols Gd per kg): barely perceptible
dose required for enhancement, higher than 0.03 mmols Gd per kg (BRO human melanoma; in vivo): 1/2
enhancement of human brain tumors (human brain tumors): almost all human brain tumors undergo significant enhancement
T1 (% of control), kidney (liver, kidney): 24%
T1 (% of control), liver (liver, kidney): 83%
time by which contrast was significantly reduced [3]: ≤ 1.5 h
T1 (% of control), in vivo, kidney [4]: 57%
T1 (% of control), in vivo, liver [4]: 83%
% decrease in T1 of spleen (spleen): 14.4%
T1 (% of control), in vitro, liver (liver, spleen, kidney; control 275 msec): 88%
T1 (% of control), in vitro, spleen (liver, spleen, kidney; control 464 msec): 86%
T1 (% of control), in vitro, kidney (liver, spleen, kidney; control 492 msec): 25%
ID50 (total weight), concentration reducing T1 to 50% of buffered saline ([1]; 20 MHz, phosphate-buffered saline): 84 µg/mL
enhancement of blood flow images (blood in heart chambers): almost completely ineffective
changes in liver T1 (liver): minimal changes in liver Tl's
clearance half-time from bloodstream and tumors ([5]; in vivo): 20 min
sequestered in the kidneys ([5]; intravenous): > 90%
% decrease in T1, kidney [6, 7]: 55.7%
% decrease in T1, liver [6, 7]: 24.6%
time after which all liver enhancement was lost ([6]; rat, in vivo): 50 min
